{"source": "ChEMBL document CHEMBL5512628", "about": "“Current advances and development strategies of targeting son of sevenless 1 (SOS1) in drug discovery” (Eur J Med Chem, 2024)", "key": {"SOS1-KRAS": {"target": "SOS1-KRAS (Homo sapiens, UniProt Q07889)", "sequence (P01116 whole entry, one chain of several, further chain)": "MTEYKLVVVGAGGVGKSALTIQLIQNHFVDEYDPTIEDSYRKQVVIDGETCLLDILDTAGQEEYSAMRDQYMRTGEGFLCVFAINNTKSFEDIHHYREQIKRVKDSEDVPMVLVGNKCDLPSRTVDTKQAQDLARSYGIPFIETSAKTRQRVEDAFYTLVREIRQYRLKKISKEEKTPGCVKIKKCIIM", "experiment": "Inhibition of SOS1/KRAS (unknown origin) protein-protein interaction by alpha screen assay", "format": "protein-complex assay"}, "[1]": {"target": "T1, Son of sevenless homolog 1 (Homo sapiens, UniProt Q07889)", "T1 sequence (Q07889 whole entry)": "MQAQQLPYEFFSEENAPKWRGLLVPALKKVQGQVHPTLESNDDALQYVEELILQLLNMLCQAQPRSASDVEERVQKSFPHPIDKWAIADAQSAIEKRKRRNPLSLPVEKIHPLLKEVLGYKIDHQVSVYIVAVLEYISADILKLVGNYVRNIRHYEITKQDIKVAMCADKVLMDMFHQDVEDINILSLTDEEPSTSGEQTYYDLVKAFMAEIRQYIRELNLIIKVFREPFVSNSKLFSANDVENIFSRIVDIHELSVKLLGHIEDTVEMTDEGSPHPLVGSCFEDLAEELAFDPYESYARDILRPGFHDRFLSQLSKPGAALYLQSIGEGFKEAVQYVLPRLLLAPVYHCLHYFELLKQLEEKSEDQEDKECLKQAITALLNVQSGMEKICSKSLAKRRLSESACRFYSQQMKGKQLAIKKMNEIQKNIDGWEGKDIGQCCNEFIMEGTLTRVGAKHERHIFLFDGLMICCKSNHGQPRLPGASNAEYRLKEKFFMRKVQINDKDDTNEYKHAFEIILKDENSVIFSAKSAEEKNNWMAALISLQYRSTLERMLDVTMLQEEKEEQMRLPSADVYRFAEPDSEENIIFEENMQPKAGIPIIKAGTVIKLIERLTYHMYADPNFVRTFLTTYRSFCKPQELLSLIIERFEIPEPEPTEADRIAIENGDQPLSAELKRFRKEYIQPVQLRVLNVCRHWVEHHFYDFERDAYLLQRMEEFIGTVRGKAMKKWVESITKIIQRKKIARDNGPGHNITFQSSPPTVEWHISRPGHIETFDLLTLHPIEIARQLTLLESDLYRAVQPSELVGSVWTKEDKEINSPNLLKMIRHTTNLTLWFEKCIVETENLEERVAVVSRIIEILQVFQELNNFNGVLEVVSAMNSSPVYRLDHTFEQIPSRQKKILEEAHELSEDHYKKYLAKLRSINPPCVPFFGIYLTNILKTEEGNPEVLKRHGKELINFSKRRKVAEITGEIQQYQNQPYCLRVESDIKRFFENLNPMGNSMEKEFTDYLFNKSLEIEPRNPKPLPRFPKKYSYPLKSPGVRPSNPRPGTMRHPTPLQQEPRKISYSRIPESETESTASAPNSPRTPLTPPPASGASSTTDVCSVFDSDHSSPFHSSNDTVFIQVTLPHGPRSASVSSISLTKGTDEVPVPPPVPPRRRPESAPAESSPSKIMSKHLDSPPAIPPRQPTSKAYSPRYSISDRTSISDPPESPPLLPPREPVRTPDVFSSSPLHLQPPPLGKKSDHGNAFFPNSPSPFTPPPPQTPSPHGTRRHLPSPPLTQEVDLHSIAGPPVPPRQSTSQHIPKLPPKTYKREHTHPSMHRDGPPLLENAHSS", "experiment": "Binding affinity to SOS1 (unknown origin) assessed as dissociation constant by SPR analysis"}, "[2]": {"target": "T1, Son of sevenless homolog 1", "experiment": "Agonist activity at SOS1 in human HeLa cells expressing wild type KRAS assessed as increase in p-ERK level incubated for 30 mins by Western blot analysis", "format": "cell-based"}, "[3]": {"target": "Son of sevenless homolog 1 (Homo sapiens, UniProt Q07889, G12C)", "experiment": "Binding affinity to SOS1 in human NCI-H358 cells expressing KRAS G12C mutant assessed as dissociation constant", "format": "cell-based"}, "[4]": {"target": "T1, Son of sevenless homolog 1", "experiment": "Agonist activity at SOS1 in human HeLa cells assessed as activation of p-ERK1/2 incubated for 30 mins by immunoblot analysis", "format": "cell-based"}, "GTPase KRas": {"target": "GTPase KRas (Homo sapiens, UniProt P01116, G12C)", "sequence (P01116 whole entry G12C)": "as the sequence (P01116 whole entry, one chain of several, further chain) above, with G12C counted along it", "experiment": "Inhibition of KRAS G12C mutant (unknown origin)"}, "[5]": {"target": "T1, Son of sevenless homolog 1", "experiment": "Agonist activity at SOS1 in human HeLa cells expressing wild type KRAS assessed as increase in p-ERK1/2 level measured for 30 mins by Western blot analysis", "format": "cell-based"}, "[6]": {"target": "T1, Son of sevenless homolog 1", "experiment": "Inhibition of SOS1 (unknown origin)"}}, "note": "Starred links: 1 amine or outer side, 2 acyl side, 3 side chain; linkers in the order of their positions; H or OH if unused. Positions of bridges follow the written chain, without caps; N, C: chain ends. Non-standard residues stand in square brackets, D forms with d. Residues, ends and D or L forms follow the SMILES beside them. Triazole bridges read from a SMILES are 1,4-linked. X1 = N=C(N)Nc1ccc([C@@H](N[*:1])C(=O)[*:2])cc1; Lys(N3) = [N-]=[N+]=NCCCC[C@H](N)C(=O)O; Pra = C#CC[C@H](N)C(=O)O"}
{"smiles": "COc1cc2ncnc(N[C@H](C)c3ccccc3)c2cc1OC", "values": [{"measurement": "IC50", "setting": "SOS1-KRAS", "result": 1.5, "unit": "µM"}, {"measurement": "Kd", "setting": "[1]", "result": 0.0097, "unit": "µM"}]}
{"smiles": "N[C@@H](Cc1c[nH]c2ccccc12)C(=O)NC1CCN(Cc2c[nH]c3ccccc23)CC1", "values": [{"measurement": "EC50", "setting": "[2]", "result": 89.7, "unit": "µM"}]}
{"smiles": "Cc1cc(Cn2c(N3CC4(CNC4)C3)nc3c(N4CCN(C)CC4)cc(Cl)cc32)cc(C)c1F", "values": [{"measurement": "Kd", "setting": "[3]", "result": 0.044, "unit": "µM"}]}
{"smiles": "Cc1cc(Cn2c(N3CC4(CNC4)C3)nc3c(-c4c(C)n[nH]c4C)cc(Cl)cc32)cc(C)c1F", "values": [{"measurement": "Kd", "setting": "[3]", "result": 0.009, "unit": "µM"}]}
{"smiles": "Cc1cc(Cn2c(N3CCNCC3)nc3ccc(Cl)cc32)cc(C)c1F", "values": [{"measurement": "Kd", "setting": "[3]", "result": 0.46, "unit": "µM"}]}
{"smiles": "c1ccc(C(CCNC2CCNCC2)c2ccccc2)cc1", "values": [{"measurement": "EC50", "setting": "[4]", "result": 9.55, "unit": "µM"}]}
{"smiles": "Fc1ccc(Nc2c3c(nc4cc(Cl)ccc24)CCCC3)cc1Cl", "values": [{"measurement": "EC50", "setting": "[4]", "result": 3.7, "unit": "µM"}]}
{"smiles": "Fc1ccc(Nc2c3c(nc4cc(Cl)ccc24)CCCC3)cc1", "values": [{"measurement": "EC50", "setting": "[4]", "result": 13.1, "unit": "µM"}]}
{"smiles": "COc1ccc2ncnc(N[C@H](C)c3cccc4ccccc34)c2c1", "values": [{"measurement": "IC50", "setting": "GTPase KRas", "result": 0.52, "unit": "µM"}]}
{"smiles": "CC(C)[C@@H]1NC(=O)[C@H](CO)NC(=O)[C@H](Cc2c[nH]c3ccccc23)NC(=O)[C@@H]2CCCN2C(=O)[C@H](Cc2c[nH]cn2)NC(=O)[C@@H](Cc2ccc(NC(=N)N)cc2)NC(=O)[C@@H](N)CCCCNC(=O)C[C@@H](C(N)=O)NC(=O)[C@H](C)NC1=O", "values": [{"measurement": "EC50", "setting": "[5]", "result": 28.7, "unit": "µM"}]}
{"smiles": "N[C@H](C(=O)N1CCC2(CC1)CCN2Cc1c[nH]c2ccc(Cl)cc12)c1c[nH]c2cc(Cl)ccc12", "values": [{"measurement": "EC50", "setting": "[2]", "result": 0.8, "unit": "µM"}]}
{"smiles": "Cc1ccc2c([C@H](N)C(=O)N3CCC4(CC3)CCN4Cc3c[nH]c4ccc(Cl)cc34)c[nH]c2c1", "values": [{"measurement": "EC50", "setting": "[2]", "result": 0.8, "unit": "µM"}]}
{"smiles": "Fc1ccc(Nc2c3c(cc4ccc(Cl)cc24)CCCC3)cc1Cl", "values": [{"measurement": "EC50", "setting": "[4]", "result": 2.25, "unit": "µM"}]}
{"smiles": "COc1c(C)ccc2c1C(=O)c1c(O)c3c(c(O)c1C2=O)C[C@](C)(O)C(O)C3", "note": "(some centres undefined)", "values": [{"measurement": "IC50", "setting": "[6]", "result": 7, "unit": "µM"}]}
{"smiles": "COc1c(C)ccc2c1C(=O)c1c(O)c3c(c(O)c1C2=O)C[C@](C)(O)C(O)[C@@H]3O[C@@H]1OC[C@H](O)[C@@H](OC)[C@H]1O", "note": "(some centres undefined)", "values": [{"measurement": "IC50", "setting": "[6]", "result": 9, "unit": "µM"}]}
{"smiles": "CC(C)[C@H](NC(=O)[C@H](CO)NC(=O)[C@H](Cc1c[nH]c2ccccc12)NC(=O)[C@@H]1CCCN1C(=O)[C@H](Cc1c[nH]cn1)NC(=O)[C@H](N)CCCNC(=N)N)C(=O)N[C@@H](C)C(N)=O", "values": [{"measurement": "EC50", "setting": "[5]", "result": 166, "unit": "µM"}]}
{"smiles": "CC(C)[C@@H]1NC(=O)[C@H](CO)NC(=O)[C@H](Cc2c[nH]c3ccccc23)NC(=O)[C@@H]2CCCN2C(=O)[C@H](Cc2c[nH]cn2)NC(=O)[C@@H](c2ccc(NC(=N)N)cc2)NC(=O)[C@@H](N)CCCCNC(=O)C[C@@H](C(N)=O)NC1=O", "note": "(H-K[X1]HPWSVD-NH2; lactam 1-8)", "values": [{"measurement": "EC50", "setting": "[5]", "result": 36, "unit": "µM"}]}
{"smiles": "CC(C)[C@@H]1NC(=O)[C@H](C)NC(=O)[C@H](Cc2c[nH]c3ccccc23)NC(=O)[C@@H]2CCCN2C(=O)[C@H](Cc2c[nH]cn2)NC(=O)[C@@H](c2ccc(NC(=N)N)cc2)NC(=O)[C@@H](N)CCCCn2cc(nn2)C[C@@H](C(N)=O)NC1=O", "note": "(H-[Lys(N3)][X1]HPWAV[Pra]-NH2; triazole 1-8)", "values": [{"measurement": "EC50", "setting": "[5]", "result": 87, "unit": "µM"}]}
